Some test systems named below: CCRF-CEM leukemia; COLO 205 colon; DU-145 prostate; EKVX NSCLC; HCC-2998 colon; KM12 colon; MDA-N; NCI-H522 lung; RXF 393 renal; SF-295 CNS; SK-MEL-2 melanoma.
Holding throughout (assay): inhibition of tumour cell growth, NCI panel, 48 h

Our source for the TGI values is PubChem BioAssay (NCI).

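Tested at 5 concentrations; 48 h exposure; 96-well plates; endpoints linearly interpolated, else capped at highest concentration. TGI marks complete inhibition of growth.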 Some results are limits rather than exact numbers.

`O=C(c1cc(Cl)cc(Cl)c1)N(C(=S)OC12CC3CC(CC(C3)C1)C2)c1ccccc1`: the TGI in the test on CCRF-CEM leukemia is 49.9 µM; in the test with COLO 205 colon, 35.4 µM; in the test on DU-145 prostate it was more than 100 µM; with EKVX NSCLC, 69.1 µM; in the test with HCC-2998 colon, more than 100 µM; in the test with KM12 colon, more than 100 µM. Further, the TGI was more than 100 µM in the test with MDA-N; 62.3 µM in the test with NCI-H522 lung; more than 100 µM in the test with RXF 393 renal; more than 100 µM in the test on SF-295 CNS; 41.6 µM in the test with SK-MEL-2 melanoma.

On to `NNC(=O)CNC(=O)CSc1nnc(COc2ccc(Cl)cc2)n1-c1ccccc1`, for which the TGI in the test on CCRF-CEM leukemia, in the test with COLO 205 colon, in the test on DU-145 prostate, in the test on EKVX NSCLC, in the test with HCC-2998 colon and in the test with KM12 colon was more than 100 µM each time. Moreover, the TGI in the test on MDA-N, with NCI-H522 lung, in the test with RXF 393 renal, in the test on SF-295 CNS and with SK-MEL-2 melanoma was more than 100 µM throughout.

`CC(=O)OCC1OC(n2c(N)c(C#N)c(-c3ccccc3)c(C#N)c2=S)C(OC(C)=O)C(OC(C)=O)C1OC(C)=O` (stereo unspecified): the TGI in the test on CCRF-CEM leukemia, in the test on COLO 205 colon, in the test on DU-145 prostate, in the test on EKVX NSCLC, in the test on HCC-2998 colon and in the test on KM12 colon was more than 100 µM throughout. For the same molecule, the TGI in the test on MDA-N was more than 100 µM; in the test on NCI-H522 lung, more than 100 µM; with RXF 393 renal, more than 70.5 µM; in the test on SF-295 CNS, more than 93 µM; in the test with SK-MEL-2 melanoma it was more than 100 µM.

Turning to `COC(=O)C(CCC1C=CCC1)N=Cc1ccccc1` (stereo unspecified), the TGI with CCRF-CEM leukemia, with COLO 205 colon, in the test with DU-145 prostate, in the test on EKVX NSCLC, in the test with HCC-2998 colon and with KM12 colon was more than 100 µM each time. For the same molecule, the TGI in the test on MDA-N, with NCI-H522 lung, in the test with RXF 393 renal, in the test with SF-295 CNS and with SK-MEL-2 melanoma was more than 100 µM in each case.

Consider `O=C(CN1CCN(C(=O)OCc2ccccc2)CCN(CC(=O)N2CCCCC2)CCN(C(=O)OCc2ccccc2)CC1)N1CCCCC1`, for which the TGI in the test on CCRF-CEM leukemia is more than 49.8 µM; in the test on COLO 205 colon, 27.2 µM; with DU-145 prostate, more than 54.8 µM; in the test on EKVX NSCLC it was more than 56.7 µM; in the test with HCC-2998 colon, 25.2 µM; in the test on KM12 colon, 46.3 µM. Besides, the TGI in the test with MDA-N came out at 29.7 µM; with NCI-H522 lung, 19 µM; in the test with RXF 393 renal, 39.1 µM; in the test on SF-295 CNS it was 41.1 µM; in the test on SK-MEL-2 melanoma, 40.2 µM.

With `O=C(O)CSCC(=O)Nc1ccc2cccc3c2c1CC3`, the TGI in the test on CCRF-CEM leukemia, with COLO 205 colon, in the test with DU-145 prostate, in the test with EKVX NSCLC, with HCC-2998 colon and in the test with KM12 colon was more than 100 µM in each case. For the same molecule, the TGI with MDA-N, in the test on NCI-H522 lung, with RXF 393 renal, with SF-295 CNS and in the test with SK-MEL-2 melanoma was more than 100 µM throughout.
